Compound | melting point [°C]
c1ccc2cc(Cn3ccnc3)ccc2c1 | 87 to 88
NS(=O)(=O)c1cc(C(=O)O)cc(SCc2ccco2)c1Oc1ccccc1 | 214 to 216
CC(C)(C)OC(=O)NCCNC(=O)c1ccc([N+](=O)[O-])cn1 | 141 to 142
Cc1ccc(Nc2ccccc2NC(=O)CCCc2ccc(N=C(N)c3cccs3)cc2)cc1 | 66 to 68
COc1ccc(Cn2ccnc2C=Cc2ccc([N+](=O)[O-])o2)cc1 | 151 to 152
CSC(=N)c1cc(Oc2ccc(C(F)(F)F)cc2Cl)ccc1[N+](=O)[O-] | 103
CCCCNC(=O)NS(=O)(=O)c1cccc2c1nnn2C | 170 to 173
CCc1c([N+](=O)[O-])c(C(N)=O)nn1CCOC | 140
COc1ccc2c(c1)CCC1C2CCC2(C)C(NCCCCCCCCN)CCC12 (stereo not given) | 47.5 to 49
N#CN1CCC(c2n[nH]c3cc(Cl)ccc23)CC1 | 180 to 188
Cc1ccc(S(=O)(=O)Oc2n[nH]c(CO)c2C(C)(C)C)cc1 | 62 to 65
CC(C)(C)c1ccc(CCC(CC2CCCCC2)OC(=O)OCC(=O)O)cc1NC(=O)CC1c2ccccc2Oc2ccccc21 (stereo not given) | 143 to 145
O=c1cc(-c2ccncc2)nc2n1CCOCC2 | 156 to 159
N#Cc1ccc(NC(=O)c2cccc(OCc3ccc(F)c(F)c3)c2)cc1 | 173 to 174
Cc1noc2cccc(OCC3CO3)c12 (stereo not given) | 51 to 53
C#Cc1cccc(Oc2ccc3c(c2)C(=O)N(c2cccc(C#C)c2)C3=O)c1 | 150 to 160
CN(C)CCOC(=O)c1cccc(Nc2cc(C(C)(C)C)c(O)c(C(C)(C)C)c2)c1 | 119 to 120
Cc1cccc(NC(=O)c2ccccc2)c1Cl | 125 to 126
O=C(Cn1ccnc1[N+](=O)[O-])c1cccnc1 | 125 to 127
O=C(O)COc1cccc2c1CCC(Cc1c[nH]c(C(c3ccccc3)c3ccccc3)n1)C2 (stereo not given) | 170
CS(=O)(=O)Nc1ccccc1SC1CCCCC1 | 50 to 51
CCOC(=O)Cc1nc(-c2ccc(Cl)cc2)sc1Sc1ccccc1 | 71 to 73
C=Cc1ccc(CNc2ccc(Nc3ccccc3)cc2)cc1 | 143
CC1(c2ccc(S(N)(=O)=O)cc2)Cc2cc(OCC(=O)O)c(Cl)c(Cl)c2C1=O (stereo not given) | 258 to 260

Compound | melting point [°C]
CC(C)(C)OC(=O)NC(C)(C)c1ccc(-c2nc(Nc3ccc(CCN4CCOCC4)cc3)ncc2C#N)cc1 | 200
O=Cc1[nH]ccc1-c1ccc(I)cc1 | 153 to 154
COc1ccc(Cn2c3ccccc3c3c(N)c(C(=O)O)c(C)nc32)cc1 | 206 to 208
CN(C)Cc1cnc2n1-c1ccc(Br)cc1C(c1ccccn1)=NC2 | 200 to 202
CC1(C)OCc2cc(Cl)cc(C(O)c3cn(C(c4ccccc4)(c4ccccc4)c4ccccc4)cn3)c2O1 (stereo not given) | 120
COC(=O)c1ccccc1S(=O)(=O)Cc1c(O)ccc2c1CCCC2=O | 194 to 196
COC(=O)CCCc1cc2nc(Cl)ccc2n1S(=O)(=O)c1cc(F)cc(F)c1 | 90
CCOc1ccc(NC=C(C#N)C(=O)Nc2cc(OC)c(Cl)cc2Cl)cc1F | 245 to 247
O=C(O)c1ccc(CN2CCC(CCCC(=O)c3ccc4c(c3)CCN(Cc3ccccc3)CC4)CC2)cc1 | 165 to 176
CCN1CCN(c2ccc(Nc3cc(-c4cnc5cc[nH]c5c4)cn4ccnc34)nc2)CC1 | 227 to 230
CNC(=O)C1CCN(c2cc(-c3ccc(Cl)cc3)nc3ccc(F)cc23)CC1 | 279
CCOc1ccc(-c2nc(CCC(=O)c3ccccc3C(=O)OC)cs2)cc1OCC | 91.7 to 92.9
COc1ccc(CN(CCN(C)CCNC(=C[N+](=O)[O-])NCCCOc2cccc(CN3CCCCC3)c2)c2ccccn2)cc1 | 102 to 104
CC(C)(C)Nc1c([N+](=O)[O-])cc([N+](=O)[O-])c2nc(C(F)F)[nH]c12 | 199 to 201
Clc1ccc(C=Cc2ccccc2)cc1 | 129 to 130
CCCN(CCC)C(=O)n1cnc(S(=O)CCC)n1 (stereo not given) | 50 to 52
Cc1cc(-c2cc3c(cc2F)c(=O)c(C(=O)O)cn3C2CC2)cc(CO)n1 | 270 to 272
CCc1ccc(S(=O)(=O)N(c2ccc(Cl)cc2[N+](=O)[O-])C(C)C)cc1 | 117 to 118
CCOC(=O)CCc1ccc(C(=O)c2ccc(Cl)cc2)n1C | 71.5 to 73
COc1cccc(Cc2nc3n(-c4c(Cl)cc(C=O)cc4Cl)[nH]c(C(C)C)c-3c(=O)n2)c1 | 212 to 214
CCCCCCCC[C@H]1C[C@H]1CCCCCCCC(=O)NC(Cc1ccccc1)Cc1ccccc1 (relative stereo) | 40 to 45
CCCCCCCCCCCCCCCCCCN(C)CC(O)COC(c1ccccc1)(c1ccccc1)c1ccccc1 (stereo not given) | 45
CN1c2ccccc2CC1c1ccccc1NC(=O)C(C)(C)C (stereo not given) | 133 to 135
O=C(O)c1ccc(-c2ccc(C(F)(F)F)cc2)s1 | 227

Compound | melting point [°C]
CCOc1ccccc1N1CCN(C(=O)Nc2nc3ccccc3nc2OCC)CC1 | 120 to 122
O=c1ccn(-c2ccc([N+](=O)[O-])cc2)c(=O)[nH]1 | > 300
O=[N+]([O-])c1ccc(Cl)c(O)c1 | 115 to 117
N#Cc1c(Br)c(Br)n(C(=O)Oc2ccccc2)c1Br | 128 to 129
Cc1sc(C)c(CC#N)c1CC#N | 124 to 126
N#CCCCC(N)=NO | 99.5 to 101
O=C1NC(=O)C(c2c3n(c4ccccc24)CCC(CO)C3)=C1c1coc2ccccc12 (stereo not given) | 246 to 248
CCCOc1ccc(S(=O)(=O)N2CCN(CCC)CC2)cc1-c1nc2cc3ncn(Cc4ccccc4)c3cc2c(=O)[nH]1 | 194 to 195
CCCCC(=O)Nc1c(C(=O)c2cccc(C)c2)[nH]c2cc(Cl)ccc12 | 124 to 126
Cc1ccc(-c2c(-c3ccc(S(C)(=O)=O)cc3)cnn(CC(F)(F)F)c2=O)cc1 | 154 to 156
COc1cc(OC)nc(Cc2ccccc2NS(=O)(=O)C(F)(F)F)n1 | 99 to 100
CCOC(=O)C=CCCc1cn(C(c2ccccc2)(c2ccccc2)c2ccccc2)cn1 | 86 to 88
O=C(O)c1ccccc1Nc1ccc(O)c(Cl)c1 | 180 to 183
CC(=O)Sc1ccc(C#C[Si](C)(C)C)cc1 | 45 to 47
O=C(c1ccccc1F)c1cccc2c1N(C(=O)CBr)CC2 | 136
Nc1cc(C(=O)NC2CC2)n(-c2nc(Cl)nc3ccoc23)n1 | 219
O=C1OC(O)c2c(Cl)cccc21 (stereo not given) | 120 to 122
COc1ccc(C(=O)Nc2ccccc2)cc1NS(=O)(=O)c1cccc(C)c1 | 195 to 197
O=C1CCc2c(Cl)cc(Cl)c(OS(=O)(=O)C(F)(F)F)c21 | 90 to 96
CCOC(=O)c1cnn(-c2ccccn2)c1N | 92 to 93
COc1ccc(C=CC(=O)c2cccc(OCCCCCBr)c2)cc1 | 83 to 84
Cc1cccc(NC(=O)NCC(=O)N(CC(=O)N(C)c2ccc(F)c(F)c2)c2ccccc2)c1 | 163

Source: a melting point compilation (Tetko et al.; mined from patent text by program, amines drawn as free bases though some values may be those of a salt)
